Results reported in ChEMBL document CHEMBL3525924, “Cytochrome P450 3A-mediated microsomal biotransformation of 1α,25-dihydroxyvitamin D3 in mouse and human liver: drug-related induction and inhibition of catabolism” (Drug Metab Dispos, 2012).

Assays:
Type in all cases: ADME
Details in all cases: 0.5 h
[1] = Drug metabolism in prednisone treated CD1 mouse liver microsomes treated with 20 uM of 1alpha,25(OH)2D3 assessed as metabolite formation after 30 mins by LC/MS analysis in presence of NADPH
Liver microsome [2] = test: Drug level in human liver microsomes assessed as retention time treated with 20 uM of 1alpha,25(OH)2D3 after 30 mins by LC/MS analysis in presence of NADPH
[3] = Drug metabolism in prednisone treated CD1 mouse liver microsomes assessed as metabolite formation at 20 uM after 30 mins by LC/MS analysis in presence of NADPH and CYP2E inhibitor di-ethyldithiocarbamate
[4] = Drug metabolism in dexamethasone treated CD1 mouse liver microsomes assessed as metabolite formation at 20 uM after 30 mins by LC/MS analysis in presence of NADPH and CYP2E inhibitor di-ethyldithiocarbamate
[5] = Drug metabolism in CD1 mouse liver microsomes assessed as metabolite formation at 20 uM after 30 mins by LC/MS analysis in presence of NADPH and CYP2E inhibitor di-ethyldithiocarbamate
[6] = Drug metabolism in prednisone treated CD1 mouse liver microsomes assessed as metabolite formation at 20 uM after 30 mins by LC/MS analysis in presence of NADPH and CYP2A inhibitor 8-methoxypsoralen
[7] = Drug metabolism in dexamethasone treated CD1 mouse liver microsomes assessed as metabolite formation at 20 uM after 30 mins by LC/MS analysis in presence of NADPH and CYP2A inhibitor 8-methoxypsoralen
[8] = Drug metabolism in CD1 mouse liver microsomes assessed as metabolite formation at 20 uM after 30 mins by LC/MS analysis in presence of NADPH and CYP2A inhibitor 8-methoxypsoralen
[9] = Drug metabolism in prednisone treated CD1 mouse liver microsomes assessed as metabolite formation at 20 uM after 30 mins by LC/MS analysis in presence of NADPH and CYP2B inhibitor orphenadrine
[10] = Drug metabolism in dexamethasone treated CD1 mouse liver microsomes assessed as metabolite formation at 20 uM after 30 mins by LC/MS analysis in presence of NADPH and CYP2B inhibitor orphenadrine
[11] = Drug metabolism in CD1 mouse liver microsomes assessed as metabolite formation at 20 uM after 30 mins by LC/MS analysis in presence of NADPH and CYP2B inhibitor orphenadrine
Liver microsome [12] = test: Drug metabolism in human liver microsomes assessed as IC50 for ritonavir-mediated inhibition of metabolite formation at 20 uM after 30 mins by LC/MS analysis
Liver microsome [13] = test: Drug metabolism in human liver microsomes assessed as IC50 for ketoconazole-mediated inhibition of metabolite formation at 20 uM after 30 mins by LC/MS analysis
Liver microsome [14] = test: Drug metabolism in human liver microsomes assessed as IC50 for clarithromycin-mediated inhibition of metabolite formation at 20 uM after 30 mins by LC/MS analysis
Liver microsome [15] = test: Drug metabolism in human liver microsomes assessed as IC50 for tamoxifen-mediated inhibition of metabolite formation at 20 uM after 30 mins by LC/MS analysis
Liver microsome [16] = test: Drug metabolism in human liver microsomes assessed as IC50 for docetaxel-mediated inhibition of metabolite formation at 20 uM after 30 mins by LC/MS analysis
[17] = Drug level in dexamethasone treated CD1 mouse liver microsomes treated with 20 uM of 1alpha,25(OH)2D3 after 30 mins by LC/MS analysis in presence of NADPH relative to vehicle treated mouse
[18] = Drug metabolism in prednisone treated CD1 mouse liver microsomes assessed as metabolite formation at 20 uM after 30 mins by LC/MS analysis in presence of NADPH and CYP1A2 inhibitor furafyline
[19] = Drug metabolism in dexamethasone treated CD1 mouse liver microsomes assessed as metabolite formation at 20 uM after 30 mins by LC/MS analysis in presence of NADPH and CYP1A2 inhibitor furafyline
[20] = Drug metabolism in CD1 mouse liver microsomes assessed as metabolite formation at 20 uM after 30 mins by LC/MS analysis in presence of NADPH and CYP1A2 inhibitor furafyline
[21] = Drug metabolism in prednisone treated CD1 mouse liver microsomes assessed as metabolite formation at 20 uM after 30 mins by LC/MS analysis in presence of NADPH and CYP1A1 inhibitor alpha-naphthoflavone
[22] = Drug metabolism in dexamethasone treated CD1 mouse liver microsomes assessed as metabolite formation at 20 uM after 30 mins by LC/MS analysis in presence of NADPH and CYP1A1 inhibitor alpha-naphthoflavone
[23] = Drug metabolism in CD1 mouse liver microsomes assessed as metabolite formation at 20 uM after 30 mins by LC/MS analysis in presence of NADPH and CYP1A1 inhibitor alpha-naphthoflavone
[24] = Drug metabolism in prednisone treated CD1 mouse liver microsomes assessed as metabolite formation at 20 uM after 30 mins by LC/MS analysis in presence of NADPH and CYP2C inhibitor sulfaphenazole
[25] = Drug metabolism in dexamethasone treated CD1 mouse liver microsomes assessed as metabolite formation at 20 uM after 30 mins by LC/MS analysis in presence of NADPH and CYP2C inhibitor sulfaphenazole
[26] = Drug metabolism in CD1 mouse liver microsomes assessed as metabolite formation at 20 uM after 30 mins by LC/MS analysis in presence of NADPH and CYP2C inhibitor sulfaphenazole
[27] = Drug metabolism in prednisone treated CD1 mouse liver microsomes assessed as metabolite formation at 20 uM after 30 mins by LC/MS analysis in presence of NADPH and CYP2D inhibitor quinine
[28] = Drug metabolism in dexamethasone treated CD1 mouse liver microsomes assessed as metabolite formation at 20 uM after 30 mins by LC/MS analysis in presence of NADPH and CYP2D inhibitor quinine
[29] = Drug metabolism in CD1 mouse liver microsomes assessed as metabolite formation at 20 uM after 30 mins by LC/MS analysis in presence of NADPH and CYP2D inhibitor quinine

Row | SMILES | Drug metabolism [1] | Retention_time (Liver microsome [2]) [min] | Drug metabolism [3] | Drug metabolism [4] | Drug metabolism [5] | Drug metabolism [6] | Drug metabolism [7] | Drug metabolism [8] | Drug metabolism [9] | Drug metabolism [10] | Drug metabolism [11] | IC50 (Liver microsome [12]) [µM] | IC50 (Liver microsome [13]) [µM] | IC50 (Liver microsome [14]) [µM] | IC50 (Liver microsome [15]) [µM] | IC50 (Liver microsome [16]) [µM] | Drug metabolism [18] | Drug metabolism [19] | Drug metabolism [20] | Drug metabolism [21] | also measured
1 | C=C1/C(=C\C=C2/CCC[C@]3(C)[C@@H]([C@H](C)C[C@@H](O)CC(C)(C)O)CC[C@@H]23)C[C@@H](O)C[C@@H]1O | metabolite_detected | 9.7 | metabolite_detected | metabolite_detected | metabolite_detected | metabolite_detected | metabolite_detected | metabolite_detected | metabolite_detected | metabolite_detected | metabolite_detected | 0.016 | 0.032 | > 30 | > 40 | 0.038 | metabolite_detected | metabolite_detected | metabolite_detected | metabolite_detected | Drug metabolism [17]: metabolite_detected; Drug metabolism [22]: metabolite_detected; Drug metabolism [23]: metabolite_detected; Drug metabolism [24]: metabolite_detected; Drug metabolism [25]: metabolite_detected; Drug metabolism [26]: metabolite_detected; Drug metabolism [27]: metabolite_detected; Drug metabolism [28]: metabolite_detected; Drug metabolism [29]: metabolite_detected
2 | C=C1/C(=C\C=C2/CCC[C@]3(C)[C@@H]([C@H](C)C[C@H](O)CC(C)(C)O)CC[C@@H]23)C[C@@H](O)C[C@@H]1O | metabolite_detected | 8.5 | metabolite_detected | metabolite_detected | metabolite_detected | metabolite_detected | metabolite_detected | metabolite_detected | metabolite_detected | metabolite_detected | metabolite_detected | 0.013 | 0.04 | > 30 | > 40 | 0.038 | metabolite_detected | metabolite_detected | metabolite_detected | metabolite_detected | fold change (FC) [17]: 43; Drug metabolism [22]: metabolite_detected; Drug metabolism [23]: metabolite_detected; Drug metabolism [24]: metabolite_detected; Drug metabolism [25]: metabolite_detected; Drug metabolism [26]: metabolite_detected; Drug metabolism [27]: metabolite_detected; Drug metabolism [28]: metabolite_detected; Drug metabolism [29]: metabolite_detected
3 | C=C1/C(=C\C=C2/CCC[C@]3(C)[C@@H]([C@H](C)CC[C@H](O)C(C)(C)O)CC[C@@H]23)C[C@@H](O)C[C@@H]1O | metabolite_detected | 9 | metabolite_detected | metabolite_detected | metabolite_detected | metabolite_detected | metabolite_detected | metabolite_detected | metabolite_detected | metabolite_detected | metabolite_detected | 0.008 | 0.565 | > 30 | > 40 | 0.012 | metabolite_detected | metabolite_detected | metabolite_detected | metabolite_detected | Drug metabolism [17]: metabolite_detected; Drug metabolism [22]: metabolite_detected; Drug metabolism [23]: metabolite_detected; Drug metabolism [24]: metabolite_detected; Drug metabolism [25]: metabolite_detected; Drug metabolism [26]: metabolite_detected; Drug metabolism [27]: metabolite_detected; Drug metabolism [28]: metabolite_detected; Drug metabolism [29]: metabolite_detected
